Measured values reported in ChEMBL document CHEMBL1201862, “PubChem BioAssay data set” (2004).
Activity calls are given as the source filed them.

Key:
[1] = molecular target: Glycogen synthase kinase-3 beta (Homo sapiens, UniProt P49841); type: functional;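 further: value comes from a broad kinome profiling panel, with GSK3B as the panel member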
Aurora kinase A = Aurora kinase A (Homo sapiens, UniProt O14965); type: functional;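 further: value from the Navigating the Kinome kinase panel profiling, panel entry STK6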
[2] = A cytotoxicity screen of small molecule inhibitors of the PhoP region in Salmonella typhi identified in the primary screen. [Related pubchem assays: 1850, 1864, 1985 ]; type: functional
Apelin receptor = Apelin receptor (Homo sapiens, UniProt P35414); test: apelin receptor antagonists, arrestin read-out – cell-based, luminescent, enzyme-fragment complementation, selectivity assay for CCR6 antagonist project, SAR follow-up (AID 588359); type: functional
[3] = molecular target: C-X-C chemokine receptor type 5 (Homo sapiens, UniProt P32302); test: inhibition of CXCL13-driven CXCR5 beta-arrestin recruitment – cell-based, luminescence, CHO-K1 PathHunter, selectivity assay for CCR6 antagonist project, SAR follow-up (AID 540340); type: functional
[4] = molecular target: T1, C-C chemokine receptor type 6 (Homo sapiens, UniProt P51684); test: analog antagonism of CCR6 beta-arrestin signaling – cell-based, luminescent beta-arrestin readout, SAR follow-up (AID 540334); type: functional
T1 sequence (P51684 whole entry): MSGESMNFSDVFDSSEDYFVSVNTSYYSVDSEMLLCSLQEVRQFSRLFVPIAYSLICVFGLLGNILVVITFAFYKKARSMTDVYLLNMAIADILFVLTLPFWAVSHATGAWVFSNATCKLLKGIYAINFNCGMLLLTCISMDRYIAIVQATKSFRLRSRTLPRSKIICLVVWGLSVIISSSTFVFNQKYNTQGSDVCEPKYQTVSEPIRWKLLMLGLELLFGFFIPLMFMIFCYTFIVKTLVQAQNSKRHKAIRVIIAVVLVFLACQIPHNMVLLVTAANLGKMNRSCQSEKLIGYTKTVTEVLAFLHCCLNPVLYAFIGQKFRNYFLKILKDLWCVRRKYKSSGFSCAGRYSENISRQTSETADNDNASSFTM

Caspase-3 [5] = molecular target: T2, Caspase-3 (Homo sapiens, UniProt P42574); test: inhibition of recombinant caspase-3 activity – biochemical, luminescence, set 2, selectivity assay for SENP protease inhibitor project, SAR follow-up (AID 588599); type: functional
T2 sequence (P42574 whole entry): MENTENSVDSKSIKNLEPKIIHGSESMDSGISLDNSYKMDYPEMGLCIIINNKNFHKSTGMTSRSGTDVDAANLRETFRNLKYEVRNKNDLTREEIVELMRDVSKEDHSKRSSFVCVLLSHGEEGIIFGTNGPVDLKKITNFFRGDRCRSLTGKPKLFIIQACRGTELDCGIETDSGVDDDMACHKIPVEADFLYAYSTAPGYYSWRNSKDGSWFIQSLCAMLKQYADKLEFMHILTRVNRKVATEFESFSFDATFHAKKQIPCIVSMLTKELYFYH

[6] = molecular target: T3, Sentrin-specific protease 8 (Homo sapiens, UniProt Q96LD8); test: inhibition of sentrin protease 8 – biochemical, luminescence, set 2, SAR follow-up (AID 588601); type: functional
T3 sequence (Q96LD8 whole entry): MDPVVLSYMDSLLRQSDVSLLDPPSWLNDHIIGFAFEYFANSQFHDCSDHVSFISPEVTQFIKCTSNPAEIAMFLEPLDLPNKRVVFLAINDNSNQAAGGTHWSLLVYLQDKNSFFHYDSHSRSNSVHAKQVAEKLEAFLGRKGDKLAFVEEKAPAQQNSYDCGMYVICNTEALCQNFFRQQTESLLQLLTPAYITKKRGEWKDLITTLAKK

[7] = molecular target: T4, Sentrin-specific protease 7 (Homo sapiens, UniProt Q9BQF6); test: inhibition of human SENP7 cleavage activity – biochemical, luminescence, set 2, SAR follow-up (AID 588600); type: functional
T4 sequence (Q9BQF6 whole entry): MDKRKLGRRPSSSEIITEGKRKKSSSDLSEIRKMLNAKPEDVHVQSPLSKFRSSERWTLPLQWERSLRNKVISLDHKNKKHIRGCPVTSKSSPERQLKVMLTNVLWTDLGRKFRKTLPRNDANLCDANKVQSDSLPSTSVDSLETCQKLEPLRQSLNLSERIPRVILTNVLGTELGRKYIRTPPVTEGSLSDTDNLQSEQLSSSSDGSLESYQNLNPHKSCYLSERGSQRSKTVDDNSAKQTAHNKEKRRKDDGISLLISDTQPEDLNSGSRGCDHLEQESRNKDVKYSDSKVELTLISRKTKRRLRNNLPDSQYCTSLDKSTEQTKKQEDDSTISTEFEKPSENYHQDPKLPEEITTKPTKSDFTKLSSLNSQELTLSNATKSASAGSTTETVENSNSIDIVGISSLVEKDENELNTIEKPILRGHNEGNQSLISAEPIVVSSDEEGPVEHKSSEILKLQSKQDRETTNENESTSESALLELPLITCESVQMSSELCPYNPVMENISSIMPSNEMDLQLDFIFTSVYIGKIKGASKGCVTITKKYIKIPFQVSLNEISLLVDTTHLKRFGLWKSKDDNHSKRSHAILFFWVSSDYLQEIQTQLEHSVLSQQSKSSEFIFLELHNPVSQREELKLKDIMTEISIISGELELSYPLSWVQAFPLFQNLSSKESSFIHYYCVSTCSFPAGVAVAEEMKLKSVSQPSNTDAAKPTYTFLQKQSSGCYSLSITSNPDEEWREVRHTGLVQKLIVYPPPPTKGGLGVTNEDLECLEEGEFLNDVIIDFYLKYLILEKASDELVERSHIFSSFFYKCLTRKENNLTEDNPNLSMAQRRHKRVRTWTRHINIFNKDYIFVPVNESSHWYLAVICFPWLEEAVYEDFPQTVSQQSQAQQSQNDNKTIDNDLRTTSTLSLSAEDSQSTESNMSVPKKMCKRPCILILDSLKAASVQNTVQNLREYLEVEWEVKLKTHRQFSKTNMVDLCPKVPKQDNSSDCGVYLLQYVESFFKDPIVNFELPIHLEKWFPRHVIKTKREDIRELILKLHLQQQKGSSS

[8] = molecular target: T5, Sentrin-specific protease 6 (Homo sapiens, UniProt Q9GZR1); test: inhibition of human SENP6 catalytic domain – biochemical, luminescence, set 2, SAR follow-up (AID 588598); type: functional
T5 sequence (Q9GZR1 whole entry): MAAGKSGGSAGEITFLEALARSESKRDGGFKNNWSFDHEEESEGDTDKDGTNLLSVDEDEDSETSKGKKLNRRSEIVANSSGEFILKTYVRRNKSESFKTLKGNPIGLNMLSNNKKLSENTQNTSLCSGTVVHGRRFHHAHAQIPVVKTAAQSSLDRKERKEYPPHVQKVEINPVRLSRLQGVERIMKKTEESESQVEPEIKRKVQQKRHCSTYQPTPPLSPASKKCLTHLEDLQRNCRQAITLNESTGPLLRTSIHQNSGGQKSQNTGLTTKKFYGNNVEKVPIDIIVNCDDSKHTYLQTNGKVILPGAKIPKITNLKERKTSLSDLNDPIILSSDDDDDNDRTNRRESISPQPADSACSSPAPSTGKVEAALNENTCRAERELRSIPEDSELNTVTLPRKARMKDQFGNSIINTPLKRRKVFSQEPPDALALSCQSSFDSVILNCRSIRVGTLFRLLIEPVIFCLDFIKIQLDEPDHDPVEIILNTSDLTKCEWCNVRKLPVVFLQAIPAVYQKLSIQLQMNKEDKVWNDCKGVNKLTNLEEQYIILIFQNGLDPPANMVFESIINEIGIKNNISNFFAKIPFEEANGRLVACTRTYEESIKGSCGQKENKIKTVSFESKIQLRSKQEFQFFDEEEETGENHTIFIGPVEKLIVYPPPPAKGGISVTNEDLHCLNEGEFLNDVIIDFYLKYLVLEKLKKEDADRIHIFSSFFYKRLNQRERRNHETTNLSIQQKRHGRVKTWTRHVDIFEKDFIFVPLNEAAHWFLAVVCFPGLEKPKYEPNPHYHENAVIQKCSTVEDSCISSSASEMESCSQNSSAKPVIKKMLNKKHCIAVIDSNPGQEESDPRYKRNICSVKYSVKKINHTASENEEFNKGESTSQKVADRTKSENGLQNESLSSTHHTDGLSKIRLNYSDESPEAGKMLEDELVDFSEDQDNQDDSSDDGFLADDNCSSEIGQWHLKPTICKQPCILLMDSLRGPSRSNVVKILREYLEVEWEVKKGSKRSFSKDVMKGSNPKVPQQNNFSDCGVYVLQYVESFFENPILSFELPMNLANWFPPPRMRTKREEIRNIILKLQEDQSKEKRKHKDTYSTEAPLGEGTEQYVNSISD

Caspase-3 [9] = molecular target: T2, Caspase-3; test: SAR Analysis of small molecule inhibitors of Sentrin-specific proteases (SENPs) using a Caspase-3 Selectivity assay. [Related pubchem assays (depositor defined):AID2540, AID2599, AID434973, AID489001]; type: functional
[10] = molecular target: T5, Sentrin-specific protease 6; test: SAR Analysis of small molecule inhibitors of Sentrin-specific protease 6 (SENP6) using a Luminescent assay. [Related pubchem assays (depositor defined):AID2582, AID2599]; type: functional
[11] = molecular target: T3, Sentrin-specific protease 8; test: inhibition of human SENP8 cleavage activity – biochemical, luminescence, SAR follow-up (AID 504501); type: functional
[12] = molecular target: T4, Sentrin-specific protease 7; test: inhibition of human SENP7 cleavage activity – biochemical, luminescence, SAR follow-up (AID 504497); type: functional
Candida albicans [13] = test: Candida growth inhibition combined with fluconazole – CaCi-2 strain, Alamar Blue, dry powder, set 3, dose response (AID 488907); type: functional, organism-based
Candida albicans [14] = test: resistant Candida growth with fluconazole co-treatment – CaCi-8 strain, Alamar Blue, dry powder, set 3, dose response (AID 488905); type: functional, organism-based

Chain of Apelin receptor (P35414 whole entry, the tested form may be a part): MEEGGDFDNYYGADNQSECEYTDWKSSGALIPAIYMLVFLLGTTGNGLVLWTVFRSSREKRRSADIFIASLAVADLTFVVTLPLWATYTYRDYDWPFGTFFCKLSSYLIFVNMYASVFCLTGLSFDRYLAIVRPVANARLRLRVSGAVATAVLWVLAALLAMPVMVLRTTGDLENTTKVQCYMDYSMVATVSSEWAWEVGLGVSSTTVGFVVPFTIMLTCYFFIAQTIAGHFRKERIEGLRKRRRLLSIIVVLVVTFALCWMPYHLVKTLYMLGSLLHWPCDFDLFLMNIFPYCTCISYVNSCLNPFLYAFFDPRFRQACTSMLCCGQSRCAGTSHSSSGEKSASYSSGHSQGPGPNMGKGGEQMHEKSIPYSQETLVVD
Chain of Glycogen synthase kinase-3 beta (P49841 whole entry): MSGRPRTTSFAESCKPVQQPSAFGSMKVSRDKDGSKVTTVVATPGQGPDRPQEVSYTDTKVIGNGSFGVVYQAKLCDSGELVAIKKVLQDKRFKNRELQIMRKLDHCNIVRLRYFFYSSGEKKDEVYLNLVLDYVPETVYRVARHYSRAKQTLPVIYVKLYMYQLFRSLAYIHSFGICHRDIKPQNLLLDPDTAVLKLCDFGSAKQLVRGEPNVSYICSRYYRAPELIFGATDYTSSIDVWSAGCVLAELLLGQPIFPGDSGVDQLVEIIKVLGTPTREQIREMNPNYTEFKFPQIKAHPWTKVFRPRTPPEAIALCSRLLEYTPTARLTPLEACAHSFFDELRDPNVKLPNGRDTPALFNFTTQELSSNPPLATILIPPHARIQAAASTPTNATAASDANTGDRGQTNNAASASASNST
Chain of C-X-C chemokine receptor type 5 (P32302 whole entry): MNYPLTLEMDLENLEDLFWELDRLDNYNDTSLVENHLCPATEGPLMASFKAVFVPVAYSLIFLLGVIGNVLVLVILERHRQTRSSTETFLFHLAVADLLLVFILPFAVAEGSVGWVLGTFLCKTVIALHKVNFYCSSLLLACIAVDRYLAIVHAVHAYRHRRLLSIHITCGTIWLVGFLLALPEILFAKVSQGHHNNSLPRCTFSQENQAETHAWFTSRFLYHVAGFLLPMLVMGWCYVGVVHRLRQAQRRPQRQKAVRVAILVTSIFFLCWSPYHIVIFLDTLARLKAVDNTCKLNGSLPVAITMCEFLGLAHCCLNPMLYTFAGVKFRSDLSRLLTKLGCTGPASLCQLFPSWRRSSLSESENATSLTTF
Chain of Aurora kinase A (O14965 whole entry): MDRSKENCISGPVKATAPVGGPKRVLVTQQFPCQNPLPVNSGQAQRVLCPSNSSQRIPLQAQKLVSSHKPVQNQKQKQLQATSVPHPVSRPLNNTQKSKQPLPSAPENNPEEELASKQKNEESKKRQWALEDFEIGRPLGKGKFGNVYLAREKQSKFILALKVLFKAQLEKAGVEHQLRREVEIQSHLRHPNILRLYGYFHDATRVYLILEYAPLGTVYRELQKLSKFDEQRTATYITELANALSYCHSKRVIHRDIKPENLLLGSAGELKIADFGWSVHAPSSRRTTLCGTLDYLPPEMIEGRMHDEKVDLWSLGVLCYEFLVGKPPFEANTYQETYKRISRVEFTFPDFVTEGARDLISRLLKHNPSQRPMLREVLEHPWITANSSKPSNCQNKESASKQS

**Q.** Which Ki [1] does the source give for `O=C(Nc1ccccc1)Nc1nccs1` here?
**A.** The Ki was 10 µM (active).

**Q.** What about the Ki (Aurora kinase A) of the same compound?
**A.** The Ki was 15.8 µM (active).

**Q.** And the EC50 [2]?
**A.** The EC50 was > 50 µM (active).

**Q.** For `Cc1cccc2c1N(CCCOc1ccc(C(C)(C)C)cc1)C(=O)C2=O`, which IC50 (Apelin receptor) is on record?
**A.** The IC50 was > 66.6 µM (inactive).

**Q.** What about the IC50 [3] of the same compound?
**A.** The IC50 was 24.3 µM (inactive).

**Q.** What about the IC50 [4] of the same compound?
**A.** The IC50 was > 66.6 µM (inactive).

**Q.** Which IC50 (Caspase-3 [5]) does the source give for `O=C(N/N=C/c1c[nH]c2ccccc12)c1[nH]c2ccc(Cl)cc2c1-c1ccccc1` here?
**A.** Its IC50 is > 99 µM (inactive).

**Q.** And the IC50 [6]?
**A.** The IC50 was > 99 µM (inactive).

**Q.** And the IC50 [7]?
**A.** The IC50 was > 99 µM (inactive).

**Q.** What about the IC50 [8] of the same compound?
**A.** Its IC50 is > 99 µM (inactive).

**Q.** For `Cc1c(C(=O)Nc2nc3ccc(Cl)cc3s2)oc2ccccc12`, which IC50 (Caspase-3 [9]) is on record?
**A.** The IC50 was > 99 µM (inactive).

**Q.** And the IC50 [10]?
**A.** The IC50 was > 99 µM (inactive).

**Q.** And the IC50 [11]?
**A.** Its IC50 is > 99 µM (inactive).

**Q.** What about the IC50 [12] of the same compound?
**A.** Its IC50 is > 99 µM (inactive).

**Q.** Which AC50 (Candida albicans [13]) does the source give for `O=C(c1ccc(Cl)cc1)N1CCN(c2ccc(C(F)(F)F)cn2)CC1` here?
**A.** Its AC50 is 0.259 µM (active).

**Q.** What about the AC50 (Candida albicans [14]) of the same compound?
**A.** The AC50 was 130 µM (active).
